Consider nine molecules from ChEMBL document CHEMBL2331273 (Bioorg Med Chem Lett, 2013).

Active and inactive are the calls of the source. No cut-off for these calls is given here.

In experiment [1] the target is Beta-2 adrenergic receptor (Cavia porcellus, UniProt Q8K4Z4). Kind of experiment: Agonist activity at beta2-adrenoceptor in guinea pig trachea assessed as relaxation of histamine-induced precontracted tracheal rings.
Experiment [2] deals with 3',5'-cyclic-AMP phosphodiesterase 4B (Homo sapiens, UniProt Q07343). Kind of experiment: Inhibition of human recombinant PDE4B2 assessed as decrease in cAMP hydrolysis preincubated with substrate prior to enzyme addition measured after 30 mins by colorimetric assay method.
Experiment [3] deals with Beta-2 adrenergic receptor (Cavia porcellus) (UniProt Q8K4Z4). Description: Agonist activity at beta2-adrenoceptor in guinea pig trachea assessed as relaxation of histamine-induced precontracted tracheal rings treated 10 mins after histamine and beta2-adrenoceptor antagonist, ICI 118,551 addition.
Chain of Beta-2 adrenergic receptor (Cavia porcellus) (Q8K4Z4 whole entry, looked up): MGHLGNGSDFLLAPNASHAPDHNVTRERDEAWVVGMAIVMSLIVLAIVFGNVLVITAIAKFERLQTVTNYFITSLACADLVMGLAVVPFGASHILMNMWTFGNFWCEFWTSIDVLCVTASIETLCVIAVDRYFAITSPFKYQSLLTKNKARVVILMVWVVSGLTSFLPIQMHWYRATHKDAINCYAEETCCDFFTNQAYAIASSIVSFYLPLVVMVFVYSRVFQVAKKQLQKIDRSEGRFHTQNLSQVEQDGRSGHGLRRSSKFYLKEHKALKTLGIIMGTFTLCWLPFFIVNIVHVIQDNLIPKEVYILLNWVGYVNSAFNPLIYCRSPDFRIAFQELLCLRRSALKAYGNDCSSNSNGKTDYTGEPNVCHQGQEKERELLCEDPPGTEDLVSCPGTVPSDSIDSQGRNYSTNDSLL

Chain of Beta-2 adrenergic receptor (Q8K4Z4 whole entry): as the sequence (Q8K4Z4 whole entry, looked up) above
Chain of 3',5'-cyclic-AMP phosphodiesterase 4B (Q07343 whole entry): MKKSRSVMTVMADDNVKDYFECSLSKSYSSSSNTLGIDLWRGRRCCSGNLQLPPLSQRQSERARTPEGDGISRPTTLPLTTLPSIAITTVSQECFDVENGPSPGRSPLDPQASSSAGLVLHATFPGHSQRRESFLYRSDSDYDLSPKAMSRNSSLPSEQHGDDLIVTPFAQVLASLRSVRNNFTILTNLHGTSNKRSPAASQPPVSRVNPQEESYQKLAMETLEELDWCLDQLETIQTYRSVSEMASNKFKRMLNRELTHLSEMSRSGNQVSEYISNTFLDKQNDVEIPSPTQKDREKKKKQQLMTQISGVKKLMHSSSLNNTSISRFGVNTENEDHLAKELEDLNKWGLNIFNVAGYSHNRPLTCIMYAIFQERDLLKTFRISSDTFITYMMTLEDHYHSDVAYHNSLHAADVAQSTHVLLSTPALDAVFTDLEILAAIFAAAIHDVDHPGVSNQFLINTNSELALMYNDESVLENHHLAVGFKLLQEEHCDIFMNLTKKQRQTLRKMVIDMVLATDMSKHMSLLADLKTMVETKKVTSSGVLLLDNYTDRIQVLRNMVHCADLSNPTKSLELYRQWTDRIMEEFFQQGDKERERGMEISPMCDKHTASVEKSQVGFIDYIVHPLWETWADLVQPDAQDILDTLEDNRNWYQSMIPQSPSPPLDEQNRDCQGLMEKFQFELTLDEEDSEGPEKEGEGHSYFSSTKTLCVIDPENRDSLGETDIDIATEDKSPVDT

For the molecule `COc1ccc(C(=O)Nc2c(Cl)cncc2Cl)cc1OCCCNCC(O)c1ccc(O)c(CO)c1` (centres undefined), in experiment [1], the EC50 (commonly the concentration that produces a half-maximal response) is 3.39 nM. Besides, the half-maximal inhibitory concentration (IC50) (in general, the midpoint of a concentration-inhibition curve) in experiment [2] came out at 1090 nM.

For `COc1ccc(C(=O)Nc2c(Cl)cncc2Cl)cc1OCCCCCCNCC(O)c1ccc(O)c(CO)c1` (centres undefined), the half-maximal effective concentration (EC50) in experiment [1] is 3.16 nM. The outcome in experiment [3] was inactive. Also, the half-maximal inhibitory concentration (IC50) in experiment [2] was found to be 235 nM.

As for `COc1ccc(C2=NN(CCNCC(O)c3ccc(O)c(CO)c3)C(=O)C3CCCCC23)cc1OC` (centres undefined), in experiment [1], the EC50 was 0.646 nM. For the same molecule, the IC50 in experiment [2] is 282 nM.

Consider `COc1ccc(C2=NN(CCCCNCC(O)c3ccc(O)c(CO)c3)C(=O)C3CCCCC23)cc1OC` (centres undefined), for which the EC50 in experiment [1] was 0.676 nM. In experiment [2], the IC50 came to 278 nM.

For the molecule `COc1ccc(C2=NN(CCCCCNCC(O)c3ccc(O)c(CO)c3)C(=O)C3CCCCC23)cc1OC` (centres undefined), in experiment [1], the concentration giving a half-maximal response (EC50) was 0.832 nM. Moreover, the IC50 in experiment [2] was 271 nM.

On to `COc1ccc(C(=O)Nc2c(Cl)cncc2Cl)cc1OCCCCNCC(O)c1ccc(O)c(CO)c1` (centres undefined), for which, in experiment [1], the EC50 was 2.82 nM. In experiment [2], the IC50 turned out to be 601 nM.

For `COc1ccc(C2=NN(CCCCCCNCC(O)c3ccc(O)c(CO)c3)C(=O)C3CCCCC23)cc1OC` (centres undefined), the EC50 in experiment [1] is 0.631 nM. Moreover, the result in experiment [3] was inactive. Besides, the IC50 in experiment [2] is 263 nM.

Consider `CC(C)NCC(O)c1ccc(O)c(O)c1` (centres undefined) [ISOPROTERENOL], for which the EC50 in experiment [1] was 28.8 nM.

Take `COc1ccc(C(=O)Nc2c(Cl)cncc2Cl)cc1OCCCCCNCC(O)c1ccc(O)c(CO)c1` (centres undefined): the EC50 in experiment [1] is 1.95 nM. Also, the IC50 in experiment [2] amounted to 394 nM.
